Measured values from ChEMBL document CHEMBL4028801, “A multifactorial approach to hepatobiliary transporter assessment enables improved therapeutic compound development” (Toxicol Sci, 2013).
pIC50: −log10 of the molar value.

Tests used:
Bile salt export pump = Bile salt export pump (Homo sapiens, UniProt O95342); assay: Inhibition of human BSEP overexpressed in Sf9 cell membrane vesicles assessed as uptake of [3H]-taurocholate in presence of ATP measured after 15 to 20 mins by membrane vesicle transport assay; assay type: ADME, cell-based
[1] = target: ATP-binding cassette sub-family C member 2 (Homo sapiens, UniProt Q92887); assay: Inhibition of human MRP2 overexpressed in Sf9 cell membrane vesicles assessed as uptake of [3H]-estradiol-17beta-D-glucuronide in presence of ATP and GSH measured after 20 mins by membrane vesicle transport assay
[2] = target: ATP-binding cassette sub-family C member 3 (Homo sapiens, UniProt O15438); assay: Inhibition of human MRP3 overexpressed in Sf9 insect cell membrane vesicles assessed as uptake of [3H]-estradiol-17beta-D-glucuronide in presence of ATP and GSH measured after 10 mins by membrane vesicle transport assay; assay type: ADME, cell-based
[3] = target: T1, ATP-binding cassette sub-family C member 4 (Homo sapiens, UniProt O15439); assay: Inhibition of human MRP4 overexpressed in Sf9 cell membrane vesicles assessed as uptake of [3H]-estradiol-17beta-D-glucuronide in presence of ATP and GSH measured after 20 mins by membrane vesicle transport assay; assay type: ADME, cell-based
T1 sequence (O15439 whole entry): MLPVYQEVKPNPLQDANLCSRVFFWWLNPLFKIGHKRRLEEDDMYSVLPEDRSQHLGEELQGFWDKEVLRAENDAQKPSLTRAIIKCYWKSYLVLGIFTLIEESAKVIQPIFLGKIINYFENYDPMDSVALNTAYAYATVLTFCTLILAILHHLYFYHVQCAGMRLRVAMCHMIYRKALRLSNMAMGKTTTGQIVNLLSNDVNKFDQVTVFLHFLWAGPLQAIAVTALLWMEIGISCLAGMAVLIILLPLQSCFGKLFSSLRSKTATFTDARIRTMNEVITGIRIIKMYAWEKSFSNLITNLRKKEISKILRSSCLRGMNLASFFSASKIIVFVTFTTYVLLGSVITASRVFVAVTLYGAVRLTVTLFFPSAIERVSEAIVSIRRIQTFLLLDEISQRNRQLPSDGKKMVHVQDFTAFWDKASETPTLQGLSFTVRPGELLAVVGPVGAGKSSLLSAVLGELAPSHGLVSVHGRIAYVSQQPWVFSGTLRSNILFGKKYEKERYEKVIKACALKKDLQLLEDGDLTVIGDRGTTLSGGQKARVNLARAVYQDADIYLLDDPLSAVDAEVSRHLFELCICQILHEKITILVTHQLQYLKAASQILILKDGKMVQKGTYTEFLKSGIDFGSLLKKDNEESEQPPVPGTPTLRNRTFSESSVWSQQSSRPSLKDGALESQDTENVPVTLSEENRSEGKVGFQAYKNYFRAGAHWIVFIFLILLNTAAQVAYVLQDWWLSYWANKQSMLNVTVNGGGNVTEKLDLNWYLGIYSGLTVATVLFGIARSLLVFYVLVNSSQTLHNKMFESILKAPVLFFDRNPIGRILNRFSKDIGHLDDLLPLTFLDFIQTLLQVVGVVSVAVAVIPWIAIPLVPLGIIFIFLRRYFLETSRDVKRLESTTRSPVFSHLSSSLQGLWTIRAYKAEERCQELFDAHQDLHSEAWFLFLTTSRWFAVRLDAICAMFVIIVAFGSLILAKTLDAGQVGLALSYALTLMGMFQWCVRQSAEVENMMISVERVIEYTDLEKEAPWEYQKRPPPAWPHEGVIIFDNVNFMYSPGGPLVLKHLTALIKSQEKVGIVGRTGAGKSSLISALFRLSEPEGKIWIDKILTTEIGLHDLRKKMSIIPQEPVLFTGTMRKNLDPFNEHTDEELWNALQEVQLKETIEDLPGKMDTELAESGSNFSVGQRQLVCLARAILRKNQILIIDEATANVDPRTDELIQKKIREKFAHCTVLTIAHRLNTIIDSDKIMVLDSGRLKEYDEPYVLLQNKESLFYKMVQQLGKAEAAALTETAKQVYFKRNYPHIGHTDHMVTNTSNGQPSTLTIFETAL

[4] = AUC in human at 100 mg, po QD after 24 hrs; assay type: ADME, organism-based; set-up: time < 24 hr, dose 100 mg, route oral; details: in vivo
[5] = Drug concentration at steady state in human at 100 mg, po QD after 24 hrs; assay type: ADME, organism-based; details: in vivo, read-out: Css
Homo sapiens [6] = assay: Ratio of drug concentration at steady state in human at 100 mg, po after 24 hrs to IC50 for human BSEP overexpressed in Sf9 insect cells; assay type: ADME, organism-based; details: in vivo
[7] = AUC in human at 40 to 80 mg, po QD after 24 hrs; assay type: ADME, organism-based; details: in vivo
[8] = Drug concentration at steady state in human at 40 to 80 mg, po QD after 24 hrs; assay type: ADME, organism-based; details: in vivo, read-out: Css
[9] = Ratio of drug concentration at steady state in human at 40 to 80 mg, po QD after 24 hrs to IC50 for human BSEP overexpressed in Sf9 insect cells; assay type: ADME, organism-based; details: in vivo
[10] = Ratio of drug concentration at steady state in human at 40 to 80 mg, po QD after 24 hrs to IC50 for human MRP4 overexpressed in Sf9 insect cells; assay type: ADME, organism-based; details: in vivo
Homo sapiens [11] = assay: Drug concentration at steady state in human at 25 to 50 mg, po TID after 8 hrs; assay type: ADME, organism-based; details: in vivo
[12] = AUC in human at 1.25 to 25 mg, po QD after 24 hrs; assay type: ADME, organism-based; details: in vivo
[13] = Drug concentration at steady state in human at 1.25 to 25 mg, po QD after 24 hrs; assay type: ADME, organism-based; details: in vivo, read-out: Css
[14] = AUC in human at 200 mg, po QD for 1 to 2 weeks after 24 hrs; assay type: ADME, organism-based; set-up: time < 24 hr, dose 200 mg, route oral; details: in vivo
[15] = Drug concentration at steady state in human at 200 mg, po QD for 1 to 2 weeks after 24 hrs; assay type: ADME, organism-based; details: in vivo, read-out: Css
Homo sapiens [16] = assay: Ratio of drug concentration at steady state in human at 200 mg, po QD for 1 to 2 weeks after 24 hrs to IC50 for human BSEP overexpressed in Sf9 insect cells; assay type: ADME, organism-based; details: in vivo
[17] = Ratio of drug concentration at steady state in human at 100 to 400 mg, po BID after 12 hrs to IC50 for human BSEP overexpressed in Sf9 insect cells; assay type: ADME, organism-based; details: in vivo

Sequence of ATP-binding cassette sub-family C member 2 (Q92887 whole entry): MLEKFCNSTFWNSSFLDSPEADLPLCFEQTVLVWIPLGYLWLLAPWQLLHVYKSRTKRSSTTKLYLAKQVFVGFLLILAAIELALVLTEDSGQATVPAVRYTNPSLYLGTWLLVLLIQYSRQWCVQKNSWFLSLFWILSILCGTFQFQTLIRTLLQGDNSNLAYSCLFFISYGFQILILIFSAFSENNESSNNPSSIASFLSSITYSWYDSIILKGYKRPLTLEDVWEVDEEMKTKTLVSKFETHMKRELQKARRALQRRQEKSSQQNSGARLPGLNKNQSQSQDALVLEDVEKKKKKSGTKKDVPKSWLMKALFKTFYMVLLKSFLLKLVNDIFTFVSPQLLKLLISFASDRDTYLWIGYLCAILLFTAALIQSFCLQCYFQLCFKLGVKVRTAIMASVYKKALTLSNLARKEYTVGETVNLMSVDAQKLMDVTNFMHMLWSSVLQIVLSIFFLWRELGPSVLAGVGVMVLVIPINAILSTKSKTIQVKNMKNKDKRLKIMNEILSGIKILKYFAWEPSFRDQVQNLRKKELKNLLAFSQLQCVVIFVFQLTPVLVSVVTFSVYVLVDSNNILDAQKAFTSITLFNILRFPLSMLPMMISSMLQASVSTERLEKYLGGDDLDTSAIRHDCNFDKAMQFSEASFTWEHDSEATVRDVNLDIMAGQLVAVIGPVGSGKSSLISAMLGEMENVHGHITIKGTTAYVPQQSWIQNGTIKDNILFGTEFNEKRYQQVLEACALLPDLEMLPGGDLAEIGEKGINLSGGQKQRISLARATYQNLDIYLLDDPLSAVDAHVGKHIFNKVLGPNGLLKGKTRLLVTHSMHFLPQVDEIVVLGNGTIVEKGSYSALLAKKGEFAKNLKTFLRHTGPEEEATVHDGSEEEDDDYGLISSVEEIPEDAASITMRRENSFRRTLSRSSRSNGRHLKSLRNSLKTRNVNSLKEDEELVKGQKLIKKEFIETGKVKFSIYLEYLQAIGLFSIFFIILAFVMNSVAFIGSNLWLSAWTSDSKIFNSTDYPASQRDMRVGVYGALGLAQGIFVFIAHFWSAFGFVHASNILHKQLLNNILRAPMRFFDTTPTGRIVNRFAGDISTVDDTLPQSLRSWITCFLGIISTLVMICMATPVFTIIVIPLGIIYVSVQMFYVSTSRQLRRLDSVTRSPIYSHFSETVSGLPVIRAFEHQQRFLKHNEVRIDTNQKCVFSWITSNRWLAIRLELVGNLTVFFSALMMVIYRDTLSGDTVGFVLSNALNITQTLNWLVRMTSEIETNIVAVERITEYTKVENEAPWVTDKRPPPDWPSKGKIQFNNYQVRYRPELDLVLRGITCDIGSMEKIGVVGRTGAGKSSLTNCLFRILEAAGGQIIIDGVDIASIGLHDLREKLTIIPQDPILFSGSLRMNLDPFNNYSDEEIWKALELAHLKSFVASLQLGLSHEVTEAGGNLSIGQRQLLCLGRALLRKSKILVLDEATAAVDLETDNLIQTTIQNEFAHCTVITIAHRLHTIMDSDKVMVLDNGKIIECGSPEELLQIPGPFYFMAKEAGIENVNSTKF
Sequence of Bile salt export pump (O95342 whole entry): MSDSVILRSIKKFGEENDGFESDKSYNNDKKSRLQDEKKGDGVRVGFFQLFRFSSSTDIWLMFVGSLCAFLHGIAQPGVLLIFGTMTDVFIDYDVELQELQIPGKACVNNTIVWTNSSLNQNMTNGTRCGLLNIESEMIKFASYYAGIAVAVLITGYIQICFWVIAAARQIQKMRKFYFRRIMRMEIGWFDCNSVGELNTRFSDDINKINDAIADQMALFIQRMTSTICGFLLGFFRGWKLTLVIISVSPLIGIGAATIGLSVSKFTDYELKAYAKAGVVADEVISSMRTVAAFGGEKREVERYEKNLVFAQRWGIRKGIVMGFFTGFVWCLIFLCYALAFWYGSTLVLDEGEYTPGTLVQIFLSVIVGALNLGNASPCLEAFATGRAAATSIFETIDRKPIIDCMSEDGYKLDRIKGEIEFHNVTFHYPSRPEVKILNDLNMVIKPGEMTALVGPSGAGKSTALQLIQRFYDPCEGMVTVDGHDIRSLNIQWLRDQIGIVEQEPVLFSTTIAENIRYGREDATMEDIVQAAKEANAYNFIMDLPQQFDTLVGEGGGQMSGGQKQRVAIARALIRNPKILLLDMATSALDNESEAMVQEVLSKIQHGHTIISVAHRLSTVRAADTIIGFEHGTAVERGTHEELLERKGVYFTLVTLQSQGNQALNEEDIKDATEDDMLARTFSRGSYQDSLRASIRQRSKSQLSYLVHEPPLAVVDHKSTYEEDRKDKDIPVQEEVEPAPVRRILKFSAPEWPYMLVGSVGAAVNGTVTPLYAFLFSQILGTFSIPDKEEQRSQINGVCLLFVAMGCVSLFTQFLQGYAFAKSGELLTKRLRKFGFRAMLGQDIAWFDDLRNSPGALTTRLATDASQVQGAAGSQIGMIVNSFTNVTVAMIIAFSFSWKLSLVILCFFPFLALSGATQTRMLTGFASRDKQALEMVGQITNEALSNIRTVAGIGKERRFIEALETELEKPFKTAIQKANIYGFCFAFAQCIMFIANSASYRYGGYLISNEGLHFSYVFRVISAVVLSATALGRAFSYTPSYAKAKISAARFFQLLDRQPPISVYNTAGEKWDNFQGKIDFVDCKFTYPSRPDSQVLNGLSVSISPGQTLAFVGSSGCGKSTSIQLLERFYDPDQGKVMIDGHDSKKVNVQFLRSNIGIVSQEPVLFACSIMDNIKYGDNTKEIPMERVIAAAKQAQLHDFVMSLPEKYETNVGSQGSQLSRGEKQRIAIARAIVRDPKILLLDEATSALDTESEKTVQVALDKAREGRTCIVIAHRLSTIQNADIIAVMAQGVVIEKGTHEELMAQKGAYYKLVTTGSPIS
Sequence of ATP-binding cassette sub-family C member 3 (O15438 whole entry): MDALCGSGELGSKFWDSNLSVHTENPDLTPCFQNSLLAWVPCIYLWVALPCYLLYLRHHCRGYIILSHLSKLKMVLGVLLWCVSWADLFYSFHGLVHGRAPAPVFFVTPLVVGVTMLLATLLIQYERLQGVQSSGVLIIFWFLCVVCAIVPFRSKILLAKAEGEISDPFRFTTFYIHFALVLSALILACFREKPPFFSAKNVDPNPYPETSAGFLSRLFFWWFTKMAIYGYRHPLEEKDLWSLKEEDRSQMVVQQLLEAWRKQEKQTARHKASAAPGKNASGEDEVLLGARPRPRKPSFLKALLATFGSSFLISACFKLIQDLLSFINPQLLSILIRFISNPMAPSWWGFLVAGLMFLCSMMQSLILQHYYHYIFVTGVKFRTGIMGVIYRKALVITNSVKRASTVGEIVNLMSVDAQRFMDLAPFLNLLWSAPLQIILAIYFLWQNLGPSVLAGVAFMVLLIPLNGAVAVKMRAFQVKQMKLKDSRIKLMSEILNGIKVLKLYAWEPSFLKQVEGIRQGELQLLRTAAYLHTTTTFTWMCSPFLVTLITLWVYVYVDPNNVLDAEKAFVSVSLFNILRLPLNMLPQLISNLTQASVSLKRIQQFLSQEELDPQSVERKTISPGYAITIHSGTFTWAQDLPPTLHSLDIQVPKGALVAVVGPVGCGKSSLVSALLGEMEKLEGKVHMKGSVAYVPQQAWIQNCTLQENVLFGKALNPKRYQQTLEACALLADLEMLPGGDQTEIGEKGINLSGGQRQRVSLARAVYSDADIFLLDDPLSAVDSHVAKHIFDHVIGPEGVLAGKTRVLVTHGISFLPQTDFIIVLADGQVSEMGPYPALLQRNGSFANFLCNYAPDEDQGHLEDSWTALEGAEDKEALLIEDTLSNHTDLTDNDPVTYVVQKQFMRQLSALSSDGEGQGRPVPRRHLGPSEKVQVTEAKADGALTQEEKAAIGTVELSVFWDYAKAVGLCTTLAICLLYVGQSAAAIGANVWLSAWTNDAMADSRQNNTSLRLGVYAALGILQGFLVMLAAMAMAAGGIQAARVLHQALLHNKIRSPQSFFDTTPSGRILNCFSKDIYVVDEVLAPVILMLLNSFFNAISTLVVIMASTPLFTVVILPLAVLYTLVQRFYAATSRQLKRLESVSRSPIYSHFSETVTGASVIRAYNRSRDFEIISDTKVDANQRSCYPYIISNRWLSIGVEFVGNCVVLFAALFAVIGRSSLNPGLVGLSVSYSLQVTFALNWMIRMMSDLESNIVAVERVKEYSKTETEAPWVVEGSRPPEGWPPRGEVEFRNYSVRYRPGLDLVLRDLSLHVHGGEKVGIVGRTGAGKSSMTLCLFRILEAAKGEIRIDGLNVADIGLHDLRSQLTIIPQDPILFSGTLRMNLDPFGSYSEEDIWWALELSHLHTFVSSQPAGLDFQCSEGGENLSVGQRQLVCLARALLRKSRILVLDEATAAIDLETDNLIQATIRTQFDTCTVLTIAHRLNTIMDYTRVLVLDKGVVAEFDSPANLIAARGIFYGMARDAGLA

SMILES	pIC50 [1]	pIC50 [2]	pIC50 [3]	pIC50 (Bile salt export pump)	other results
COCC(=O)O[C@]1(CCN(C)CCCc2nc3ccccc3[nH]2)CCc2cc(F)ccc2[C@@H]1C(C)C.Cl	< 3.88	< 3.88	< 3.88	4.36	AUC at 24 h [4]: 17.6 µM·h; concentration at 24 h [5]: 735 nM; Ratio (Homo sapiens [6]): 0.017
Cc1nc(-c2ccc(OCC(C)C)c(C#N)c2)sc1C(=O)O [FEBUXOSTAT]	< 3.88	< 3.88	5.72	4.37	AUC at 24 h [7]: 25.1 µM·h; concentration at 24 h [8]: 1050 nM; Ratio [9]: 0.024; Ratio [10]: 0.55
COCC1=C(C(=O)OC(C)OC(=O)OC(C)C)N2C(=O)[C@@H](NC(=O)/C(=N\OC)c3csc(N)n3)[C@H]2SC1 (some centres not stated) [CEFPODOXIME PROXETIL]	< 3.88	< 3.88	< 3.88	4.09	Ratio [17]: 0.022

Second part, led by results:

pIC50 [1]	pIC50 [2]	pIC50 [3]	SMILES	pIC50 (Bile salt export pump)	other results
–	4.18	–	COc1ccc2c(c1)c(CC(=O)O)c(C)n2C(=O)c1ccc(Cl)cc1 [INDOMETHACIN]	–	Css (Homo sapiens [11]): 1118 nM
–	4.48	4.98	COc1ccc(Cl)cc1C(=O)NCCc1ccc(S(=O)(=O)NC(=O)NC2CCCCC2)cc1 [GLYBURIDE]	–	AUC at 24 h [12]: 2.69 µM·h; concentration at 24 h [13]: 112 nM
< 3.88	< 3.88	< 3.88	CCC(C)n1ncn(-c2ccc(N3CCN(c4ccc(OCC5COC(Cn6cncn6)(c6ccc(Cl)cc6Cl)O5)cc4)CC3)cc2)c1=O (configuration not stated) [ITRACONAZOLE]	–	AUC at 24 h [14]: 8.69 µM·h; concentration at 24 h [15]: 362 nM; Ratio (Homo sapiens [16]): 0.02
